For data set [1], the system named is human abdominal skin. Put plainly: In vitro human skin permeation and skin disposition, flow-through diffusion cells (Example 1). The format is in vitro ADME. Particulars: for 36 h skin conc.: Table 14; for permeation through the skin: both the PG donor solution and gel formulation. The protocol:
Flow through diffusion cells were used for the permeation studies. HEPES-buffered Hanks' balanced salts containing 40% (polyethylene glycol) PEG 400 with gentamicin was used for the receiver compartment. Donor solution was comprised of either 100% propylene glycol (PG) solution or a rubbed in gel formulation. […] Drug accumulation in the skin after a 24 or 36 h diffusion experiment was determined as μmol/g wet tissue weight.
The skin samples used in the following experiments were obtained from abdominal reduction surgery and dermatomed to a thickness of approximately 200 μm. The skin samples used herein were frozen at −20° C. for less than six months.
1 L of receiver fluid was prepared by measuring 1 L of nanopure water into a graduated cylinder. 90% of the water was added to an Erlenmeyer flask. Hanks' salts (1 bottle) were added to the water along with 5.96 g of HEPES and 0.35 g of sodium bicarbonate. The pH of the solution was adjusted with 1 N sodium hydroxide solution to pH 7.4. The remaining water was added and the receiver fluid was filtered through a 0.2μ filter (Millipore, Billerica, Mass.). 50 mg of gentamicin was added to the filtered receiver fluid and 400 mL of the receiver fluid was removed and replaced with 400 mL of PEG 400.
Two different formulations were used for charging the donor compartment. Drugs were made up in either 100% PG or a gel formulation. For the PG solution, approximately 50-120 mg of the appropriate drug was weighed into a glass silanized culture tube. The gel formulation resulted from the mixing of absolute ethanol, nanopure water, IPM, Carbopol® 980, 0.1 N aqueous sodium hydroxide solution and the respective drug.
Dermatomed skin harvested from abdominoplasty, stored at −20° C., was used for the experiments. A PermeGear flow-through (In-Line, Riegelsville, Pa.) diffusion cell system was used for the skin permeation studies.
Diffusion cells were kept at 32° C. with a circulating water bath. Human epidermal skin was arranged in the diffusion cell with stratum corneum (upper layer of skin) facing the donor compartment. Permeation area of the skin was 0.95 cm^2. Data was collected from a human skin donor with three to four diffusion cells per treatment.
Receiver solution was HEPES-buffered Hanks' balanced salts with gentamicin containing 40% PEG 400 at a pH of 7.4 and flow rate was adjusted to 0.8 mL/h. Each cell was charged with 0.050 mL of the respective drug formulation (donor solution) or with 0.035 mL of gel formulation which was rubbed into the skin for 15 sec with a Teflon coated rod. The formulation was applied to ensure complete coverage. Diffusion cells were covered with a cap for the duration of the study.
Samples were collected into scintillation vials in 3 h increments for either 24 h or 36 h. All the samples were stored at 4° C. until extracted. An aliquot (0.5 mL) of the diffusion sample was placed into a silanized HPLC vial and 0.5 mL of acetonitrile was added to the sample, capped and vortexed.
At the end of the experiment, the skin tissue was removed from the diffusion cell, rinsed with nanopure water, and blotted dry with a paper towel. The skin was tape stripped twice using book tape (Scotch™, 3M, St. Paul, Minn.) to remove drug formulation adhering to the tissue surface. The area of skin in contact with the drug was cut out, chopped up and placed in a pre-weighed scintillation vial. Ten mL of acetonitrile was added to the vial and drug was extracted from the skin by shaking at room temperature overnight. The following day a 0.1 mL aliquot was removed and diluted with an additional 0.9 mL of acetonitrile. The diluted sample was added to the silanized HPLC vial for analysis.
At the end of the experiment, a 0.01 mL aliquot of the PG donor solution was removed and added to a scintillation vial containing 10 mL of acetonitrile. The vials were vortexed and then sonicated for 15 min. An aliquot of 1 mL was removed and transferred into a silanized HPLC vial for analysis.

The nature of data set [2]: Plasma stability of cannabidiol prodrugs (bioconversion to parent drug). The format is in vitro ADME. Particulars: Table 20, di-prodrug in plasma; for % mono-prodrug at time (h): mono-prodrug formed. As for the experimental part: An approximated 1 mg/mL stock solution of each prodrug was prepared in 100 μL of ethanol and 900 μL of acetonitrile. Ten (10) μL of stock was spiked into 1 mL of plasma and vortexed. The samples were kept sealed in an amber vial and samples were obtained to analyze for bioconversion to parent drug.

[3] abbreviates: Table 3, in propylene glycol, prodrug applied.
Where [4] appears, read: Table 4, in propylene glycol, prodrug applied.
[5] abbreviates: Table 5, in propylene glycol, prodrug applied.

On to `C=C(C)C1CCC(C)=CC1c1c(OC(=O)OCN(CC)CC)cc(CCCCC)cc1OC(=O)OCN(CC)CC` (stereo not drawn) [ALL00102], for which the “flux enhancement (in words)” value in data set [1] (Example 1) is given as “No flux enhancement”. Further, in data set [1] (Example 1), the “form in which the prodrug permeated through the human skin” value is on record as “permeated through the human skin as cannabidiol”. The “found in the skin disposition (tissue) samples” value (shortened to “found in the skin disposition”) in data set [1] (Example 1) was “Both cannabidiol and intact prodrug were found”. Further, the “intact prodrug in the diffusion samples (receiver samples)” value in data set [1] (Example 1) was “No intact prodrug was found”. The “total cannabidiol in the skin compared to cannabidiol” value in data set [1] (Example 1) is on record as “higher”. The “24 h cumulative amt” value amounted to 8.6 ± 6.3 nmol in data set [1] (setting [3]); 9.1 ± 5.0 nmol in data set [1] (setting [4]); 13.7 ± 18.6 nmol in data set [1] (setting [5]); 1.1 ± 0.4 nmol in data set [1] (Table 9, in gel formulation). For the same compound, the Flux in data set [1] (setting [3]) is reported as 0.6 ± 0.5 nmol/cm^2/h; in data set [1] (setting [4]), 0.7 ± 0.3 nmol/cm^2/h; in data set [1] (setting [5]), 0.3 ± 0.1 nmol/cm^2/h; in data set [1] (Table 9, in gel formulation), 0.05 ± 0.02 nmol/cm^2/h. Moreover, the Lag time came to 11.0 ± 2.8 h in data set [1] (setting [4]); 5.1 ± 0.0 h in data set [1] (setting [5]); 1.6 ± 1.6 h in data set [1] (Table 9, in gel formulation). Moreover, the “24 h skin conc” value in data set [1] (Table 4, in propylene glycol, prodrug applied, found in skin as CBD) is 18.9 ± 9.9 (CBD) μmol/g; in data set [1] (Table 4, in propylene glycol, prodrug applied, found in skin as PD (prodrug)), 73.4 ± 35.5 (PD) μmol/g; in data set [1] (Table 5, in propylene glycol, prodrug applied, found in skin as PD (prodrug)) it was 183.1 ± 62.8 (PD) μmol/g; in data set [1] (Table 9, in gel formulation, as applied compound (CBD, or PD = intact prodrug)) it was 22.9 ± 9.3 (PD) μmol/g; in data set [1] (Table 9, in gel formulation, prodrug applied, found in skin as CBD) it was 0.4 ± 0.3 (CBD) μmol/g; in data set [1] (Table 10, in propylene glycol, as applied compound (CBD, or PD = intact prodrug)) it was 31.3 ± 5.5 (PD) μmol/g.
As for `C=C(C)C1CCC(C)=CC1c1c(OC(=O)CCOCC)cc(CCCCC)cc1OC(=O)CCOCC` (stereo not drawn) [ALL00103], the “found in the skin disposition” value in data set [1] (Example 1) is on record as “Some intact prodrug was found in the skin samples but very little cannabidiol was detected”. Also, the “36 h skin conc.” value in data set [1] (in propylene glycol, as applied compound (CBD or intact prodrug)) was determined as 9.7 ± 1.0 µmol/g; in data set [1] (in propylene glycol, prodrug applied, as total CBD equivalents), 9.7 ± 1.0 µmol/g. In data set [1], the “permeation through the skin” value is recorded as “did not permeate (or were below LOD)”.
As for `C=C(C)C1CCC(C)=CC1c1c(OC(=O)NCC)cc(CCCCC)cc1OC(=O)NCC` (stereo not drawn) [ALL00104], the “found in the skin disposition” value in data set [1] (Example 1) is “Some intact prodrug was found in the skin samples but very little cannabidiol was detected”. In data set [1], the “permeation through the skin” value is reported as “did not permeate (or were below LOD)”.
Take `C=C(C)C1CCC(C)=CC1c1c(OC(=O)COCCOCCOC)cc(CCCCC)cc1OC(=O)COCCOCCOC` (stereo not drawn) [ALL00141, CBD bis(2-[2-(2-methoxyethoxy)ethoxy]acetate)]: the “% mono-prodrug at time (h)” value in data set [2] (2 h) was determined as 1%; in data set [2] (20 h), 2%. Further, the “% Di-prodrug at time (h)” value is recorded as 98% in data set [2] (0 h), 71% in data set [2] (2 h) and 46% in data set [2] (20 h).

For the origin of these results see patent publication US8293786B2 (Alltranz Inc., priority 2007, dated 2012).
